Target: human Edg-2 receptor (LPA1 receptor) (Homo sapiens, UniProt Q92633)
Test: Edg-2 receptor inhibition by FLIPR calcium fluorescence measurement (LPA-mediated calcium liberation)
Format: cell-based
Settings: CHO cells stably overexpressing human Edg-2 receptor; LPA 18:1 100 nM; fluo-4 fluorescence; triplicate; read-out: Inhibitory concentrations IC50 for inhibition of the Edg-2 receptor
Summary of the method: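 CHO cells stably overexpressing human Edg-2 were fluo-4 loaded and pre-incubated ~5 min with compound (≤0.3% DMSO) in HBSS/HEPES/probenecid, pH 7.5. Then LPA 18:1 at 100 nM final was added. Peak calcium fluorescence over ~3 min, baseline-corrected versus DMSO, gave % inhibition in triplicate and IC50.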

Sequence of human Edg-2 receptor (LPA1 receptor) (Q92633 whole entry): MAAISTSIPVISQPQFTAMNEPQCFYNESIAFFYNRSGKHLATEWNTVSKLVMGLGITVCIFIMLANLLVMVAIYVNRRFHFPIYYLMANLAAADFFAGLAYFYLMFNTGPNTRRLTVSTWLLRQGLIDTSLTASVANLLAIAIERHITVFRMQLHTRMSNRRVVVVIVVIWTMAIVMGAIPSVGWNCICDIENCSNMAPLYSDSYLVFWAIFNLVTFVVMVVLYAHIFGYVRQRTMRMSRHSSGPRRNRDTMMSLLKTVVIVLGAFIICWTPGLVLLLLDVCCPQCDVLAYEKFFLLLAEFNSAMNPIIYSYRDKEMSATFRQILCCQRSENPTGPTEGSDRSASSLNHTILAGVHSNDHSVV

Structure (SMILES) | IC50 [nM]
COc1ccc(-c2cc(C(=O)NC3(C(=O)O)Cc4ccccc4C3)ccc2OC)cc1Cl [Example 325] | < 100
COc1ccc(C(=O)NC2(C(=O)O)Cc3ccccc3C2)cc1-c1ccc2occc2c1 [Example 326] | 100 to 1000
COc1ccc(C(=O)NC2(C(=O)O)Cc3ccccc3C2)cc1-c1cccc(Cl)c1C [Example 327] | < 100
COc1ccc(C(=O)NC2(C(=O)O)Cc3ccccc3C2)cc1-c1cccc(CCC(=O)O)c1 [Example 328] | 100 to 1000
COc1ccc(C(=O)NC2(C(=O)O)Cc3ccccc3C2)cc1-c1ccsc1Cl [Example 329] | 1000 to 30000
COc1ccc(C(=O)NC2(C(=O)O)Cc3ccccc3C2)cc1-c1ccc2c(ccn2C)c1 [Example 330] | 1000 to 30000
CCOc1ccc2ccccc2c1-c1cc(C(=O)NC2(C(=O)O)Cc3ccccc3C2)ccc1OC [Example 331] | 100 to 1000
COc1ccc(C(=O)NC2(C(=O)O)Cc3ccccc3C2)cc1-c1cc(Cl)ccc1F [Example 332] | 100 to 1000
COc1ccc(C(=O)NC2(C(=O)O)Cc3ccccc3C2)cc1-c1cc(Cl)cc(C)c1F [Example 333] | < 100
COc1ccc(C(=O)NC2(C(=O)O)Cc3ccccc3C2)cc1-c1cccc(-n2cccn2)c1 [Example 334] | 100 to 1000
COc1ccc(C(=O)NC2(C(=O)O)Cc3ccccc3C2)cc1-c1cc(F)ccc1OC(C)C [Example 335] | < 100
COc1ccc(C(=O)NC2(C(=O)O)Cc3ccccc3C2)cc1-c1cc(OC(C)C)ccc1F [Example 336] | 1000 to 30000
COc1ccc(C(=O)NC2(C(=O)O)Cc3ccccc3C2)cc1-c1cc(F)cc(C(F)(F)F)c1 [Example 337] | < 100
COc1ccc(C(=O)NC2(C(=O)O)Cc3ccccc3C2)cc1-c1cccc(CN(C)C)c1 [Example 338] | 1000 to 30000
COc1ccc(C(=O)NC2(C(=O)O)Cc3ccccc3C2)cc1-c1cccc(CNC(C)=O)c1 [Example 339] | 100 to 1000
CCOc1ccc(-c2cc(C(=O)NC3(C(=O)O)Cc4ccccc4C3)ccc2OC)cc1C [Example 340] | 100 to 1000
COc1ccc(C(=O)NC2(C(=O)O)Cc3ccccc3C2)cc1-c1ccc(OC(C)C)c(C)c1 [Example 341] | 1000 to 30000
COc1ccc(C(=O)NC2(C(=O)O)Cc3ccccc3C2)cc1-c1cc(F)cc(Cl)c1 [Example 342] | < 100
COc1ccc(C(=O)NC2(C(=O)O)Cc3ccccc3C2)cc1-c1cc(F)cc(OC(C)C)c1 [Example 343] | < 100

Structure (SMILES) | IC50 [nM]
COc1ccc(C(=O)NC2(C(=O)O)Cc3ccccc3C2)cc1-c1cc(F)cc(OCC(C)C)c1 [Example 344] | 100 to 1000
COc1ccc(C(=O)NC2(C(=O)O)Cc3ccccc3C2)cc1-c1ccc(F)c(C(F)(F)F)c1 [Example 345] | < 100
COc1ccc(C(=O)NC2(C(=O)O)Cc3ccccc3C2)cc1-c1cccc(OCC(F)(F)F)c1 [Example 346] | 100 to 1000
COc1ccc(C(=O)NC2(C(=O)O)Cc3ccccc3C2)cc1-c1cc(Cl)cc(C(F)(F)F)c1 [Example 347] | < 100
COc1ccc(C(=O)NC2(C(=O)O)Cc3ccccc3C2)cc1-c1cccc(C(F)(F)F)c1F [Example 348] | < 100
COc1cc(-c2cc(C(=O)NC3(C(=O)O)Cc4ccccc4C3)ccc2OC)cc(C(F)(F)F)c1 [Example 349] | < 100
COc1ccc(C(=O)NC2(C(=O)O)Cc3ccccc3C2)cc1-c1cccc(NC(=O)C(C)C)c1 [Example 350] | 1000 to 30000
COc1ccc(C(=O)NC2(C(=O)O)Cc3ccccc3C2)cc1-c1cc(Cl)ccc1C(F)(F)F [Example 351] | < 100
COc1ccc(C(=O)NC2(C(=O)O)Cc3ccccc3C2)cc1OCCc1cc(Cl)ccc1Cl [Example 352] | < 100
COc1ccc(C(=O)NC2(C(=O)O)Cc3ccccc3C2)cc1OCCc1nonc1C [Example 353] | 1000 to 30000
COc1ccc(C(=O)NC2(C(=O)O)Cc3ccccc3C2)cc1OCCc1noc2ccccc12 [Example 354] | 1000 to 30000
COc1ccc(C(=O)NC2(C(=O)O)Cc3ccccc3C2)cc1OCCc1cc(OC(F)(F)F)ccc1F [Example 355, 2-{3-[2-(2-fluoro-5-trifluoromethoxy-phenyl)-ethoxy]-4-methoxy-benzoylamino}-indane-2-carboxylic acid] | < 100
CCS(=O)(=O)c1cccc(-c2cc(C(=O)NC3(C(=O)O)Cc4ccccc4C3)cc(F)c2OC)c1 [Example 357, 2-[(3′-Ethanesulfonyl-5-fluoro-6-methoxy-biphenyl-3-carbonyl)-amino]-indane-2-carboxylic acid] | < 100
COc1c(F)cc(C(=O)NC2(C(=O)O)Cc3ccccc3C2)cc1-c1ccc(Cl)cc1 [Example 358] | < 100
COc1c(F)cc(C(=O)NC2(C(=O)O)Cc3ccccc3C2)cc1-c1cccc(NS(C)(=O)=O)c1 [Example 359] | < 100
COc1c(F)cc(C(=O)NC2(C(=O)O)Cc3ccccc3C2)cc1-c1cccc(C(C)C)c1 [Example 360, 2-[(5-fluoro-3′-isopropyl-6-methoxy-biphenyl-3-carbonyl)-amino]-indane-2-carboxylic acid] | < 100
COc1c(F)cc(C(=O)NC2(C(=O)O)Cc3ccccc3C2)cc1-c1cccc(NS(=O)(=O)N(C)C)c1 [Example 361] | < 100
O=C(NC1(C(=O)O)Cc2ccccc2C1)c1ccc(C(F)(F)F)c(OCCc2cc(Cl)ccc2Cl)c1 [Example 362, 2-{3-[2-(2,5-Dichloro-phenyl)-ethoxy]-4-trifluoromethyl-benzoylamino}-indane-2-carboxylic acid] | < 100
